Common to all, as to type: cell-based, human
For experiment [1], the system named is CD4-positive T cells (Th cells). Description: Induction of antigen-specific Th cells from PBMC; IFN-γ intracellular staining (ICS). On the set-up: key to induction of antigen-specific T cells: The symbol “+” in Table 7 indicates that the induction of antigen-specific T cells was observed; the symbol “−” indicates that the induction of antigen-specific T cells was not observed. As to conditions: for best peptide (%) / induction efficiency (%): CD4; for best peptide (%): percentage of the 6 kinds of PBMCs in which the peptide was evaluated as best peptide; for induction efficiency (%): proportion of the 6 kinds of donor PBMCs induced to antigen-specific T cells; for induction of antigen-specific T cells: induced T cell CD4, polypeptide 5 μM, IFN-γ-producing cells, day 21; for best peptide: highest ratio of antigen-specific IFN-γ-producing cells. The procedure:
(§1) From the blood that was donated from 6 healthy human volunteers, human peripheral blood mononuclear cells (PBMC) were separated using a Ficoll-Paque (manufactured by Amersham Bioscience Inc.). The separated PBMC was cultured at 37° C. for 1 hour in a cell culture flask (manufactured by ED Biosciences) in a CO2 incubator using a serum-free AIM-V medium, thereby to remove non-adherent cells. Then, adherent cells remaining on the flask were started to culture in the AIM-V medium in the presence of a recombinant GM-CSF (10 ng/ml, manufactured by Wako Company) and a recombinant IL-4 (10 ng/ml, manufactured by Wako Company). After 3 days from the start of culture, the medium was replaced by an AIM-V medium supplemented with GM-CSF and IL-4, and dendritic cells (DC) were recovered using trypsin after 7 days from the start of culture. These DCs were used as antigen-presenting cells (APC) in the induction of antigen-specific T cells or in the analysis of antigen-specific cytokine (IFN-γ) production from T cells.
(§2) The foregoing PBMCs separated from healthy human volunteers were seeded to a density of 2×10^6 cells/well in a 24-well plate (manufactured by BD Biosciences). Then, culturing the cells were started in an AIM-V medium (1 ml/well) supplemented with each polypeptide (5 μM) derived from the WT1 protein described above inducing antigen-specific T cells, and serum at 37° C. in a CO2 incubator.
(§3) After 7 days from the start of culture, the above DC (autologous DC) was added to PBMC having the same derivation. Further, the medium was replaced with a serum-free AIM-V medium (manufactured by Life Technologies Inc.) supplemented with OK-432 (0.1 KE/ml, trade name: picibanil, manufactured by Chugai Pharmaceutical Co., Ltd.), and culture was performed for 2 hours. It should be noted that picibanil (OK-432) is a formulation obtained by treating an attenuated natural mutant strain (Su strain) of Group A Streptococcus with penicillin, and it is known that various cytokines (immune factor) are produced with use of picibanil to elicit an immune enhancing effect.
(§4) Then, after 2 hours of culture, the cells were treated for 50 minutes with addition of mitomycin C (MMC, manufactured by Kyowa Hakko Kirin Co., Ltd.). Furthermore, co-culture was performed in an AIM-V medium containing autologous DC and 5% human AB serum in which T cells are inactivated (Hokkaido Red Cross Center) in the presence of each polypeptide (5 μM) for inducing the antigen-specific T cells, thereby to re-stimulate the T cells. Two days later, a recombinant IL-2 (manufactured by Shionogi Pharmaceutical Institute Co., Ltd.) was added thereto to a final concentration of 10 U/ml. After 14 days from the start of co-culture, the autologous DC was pulsed with each polypeptide (5 μM) for inducing the antigen-specific T cells for 2 hours, and then treated with MMC. Such MMC treated cells as APC were used for re-stimulating T cells. In addition, on or after 14 days from the start of co-culture, culture was performed at the concentration of 20 U/ml of recombinant IL-2. After that, T cells on day 21 of the co-culture were collected by centrifugation or the like and subjected to an analysis of antigen-specific reactivity shown below.
(§5) T cells that were induced as described above (T cells on day 21 of the co-culture) and autologous DCs were seeded in the same well of a 96-well plate (manufactured by BD Biosciences) to a density of 5×10^4 cells/well and 5×10^3 cells/well, respectively. Then, the cells were cultured in the presence of each polypeptide (HE 4, KE 1, KE 5, H/K-HELP 1, H/K-HELP 2 or H/K-HELP 3) (5 μM) for the analysis of antigen-specific reactivity. In addition, a group without addition of such polypeptide was prepared as a control group. […]

The subject of experiment [2] is CD8-positive T cells (CTL). Description: Induction of antigen-specific CTL from PBMC; IFN-γ intracellular staining (ICS). On the set-up: key to induction of antigen-specific T cells: The symbol “+” in Table 7 indicates that the induction of antigen-specific T cells was observed; the symbol “−” indicates that the induction of antigen-specific T cells was not observed. Conditions: for best peptide (%) / induction efficiency (%): CD8; for best peptide (%): percentage of the 6 kinds of PBMCs in which the peptide was evaluated as best peptide; for induction efficiency (%): proportion of the 6 kinds of donor PBMCs induced to antigen-specific T cells; for induction of antigen-specific T cells: induced T cell CD8, polypeptide 5 μM, IFN-γ-producing cells, day 21; for best peptide: highest ratio of antigen-specific IFN-γ-producing cells. The procedure: as §1, §2, §3, §4, §5

Experiment [3] deals with CD4-positive T cells and CD8-positive T cells. Description: Induction of antigen-specific T cells from PBMC, CD4 and CD8 taken together. As to conditions: for best peptide (%): CD4 + CD8, percentage of PBMCs in which the peptide was evaluated as best peptide. The procedure:
as §1, §2, §3
Then, after 2 hours of culture, the cells were treated for 50 minutes with addition of mitomycin C (MMC, manufactured by Kyowa Hakko Kirin Co., Ltd.). Furthermore, co-culture was performed in an AIM-V medium containing autologous DC and 5% human AB serum in which T cells are inactivated (Hokkaido Red Cross Center) in the presence of each polypeptide (5 μM) for inducing the antigen-specific T cells, thereby to re-stimulate the T cells. Two days later, a recombinant IL-2 (manufactured by Shionogi Pharmaceutical Institute Co., Ltd.) was added thereto to a final concentration of 10 U/ml. […]

With “KRYFKLSHLQMHSRKHGGGGGRMFPNAPYL (Fusion polypeptide in which HE4, 5-Glycine linker and KE1 are fused in this order from the N-terminal) [H/K-HELP1, fused polypeptide: HE4, five-glycine linker, KE1 from the N-terminus]”, the “best peptide (%)” value in experiment [1], in experiment [2] and in experiment [3] was 0.00% in each case. Further, the “induction efficiency (%)” value in experiment [1] is 33.33%; in experiment [2] it was 16.67%. Moreover, the “induction of antigen-specific T cells” value in experiment [1] (donor 1 PBMC) was “+”; in experiment [1] (donor 2 PBMC) it was “−”; in experiment [1] (donor 3 PBMC), “−”; in experiment [1] (donor 4 PBMC) it was “−”; in experiment [1] (donor 5 PBMC), “+”; in experiment [1] (donor 6 PBMC), “−”. The “induction of antigen-specific T cells” value is on record as “−” in experiment [2] (donor 1 PBMC); “−” in experiment [2] (donor 2 PBMC); “−” in experiment [2] (donor 3 PBMC); “−” in experiment [2] (donor 4 PBMC); “+” in experiment [2] (donor 5 PBMC); “−” in experiment [2] (donor 6 PBMC). For the same sequence, the “activity of inducing antigen-specific T cells in CD4-positive and CD8-positive T cells, comparison in words” value in experiment [3] (compared with Comparative Example 1 (mix of the epitopes), 6 donors) is given as “not different from those of Comparative Example 1”.
Take “KRYFKLSHLQMHSRKHGGGGGRMFPNAPYLGGGGGCYTWNQMNL (Fusion polypeptide in which HE4, 5-Glycine linker, KE1, 5-Glycine linker and KE5 are fused in this order from the N-terminal) [H/K-HELP2, fused polypeptide: HE 4, KE 1 and KE 5 from the N-terminus with five-glycine linkers]”: the “best peptide (%)” value in experiment [1], in experiment [2] and in experiment [3] was 33.33% each time. The “induction efficiency (%)” value in experiment [1] and in experiment [2] was 50.00% throughout. Further, the “induction of antigen-specific T cells” value in experiment [1] (donor 1 PBMC) is “−”; in experiment [1] (donor 2 PBMC), “+”; in experiment [1] (donor 3 PBMC) it was “+”; in experiment [1] (donor 4 PBMC), “−”; in experiment [1] (donor 5 PBMC), “+”; in experiment [1] (donor 6 PBMC), “−”. The “induction of antigen-specific T cells” value in experiment [2] (donor 1 PBMC) is recorded as “+”; in experiment [2] (donor 2 PBMC), “−”; in experiment [2] (donor 3 PBMC), “+”; in experiment [2] (donor 4 PBMC) it was “−”; in experiment [2] (donor 5 PBMC) it was “−”; in experiment [2] (donor 6 PBMC), “+”. Besides, the best peptide result in experiment [1] (donor 2, CD4) is reported as “H/K-HELP2”; in experiment [1] (donor 3, CD4), “H/K-HELP2”; in experiment [2] (donor 1, CD8), “H/K-HELP2”; in experiment [2] (donor 6, CD8), “H/K-HELP2”.
In the case of “RMFPNAPYLGGGGGKRYFKLSHLQMHSRKHGGGGGCYTWNQMNL (Fusion polypeptide in which KE1, 5-Glycine linker, HE4, 5-Glycine linker and KE5 are fused in this order from the N-terminal) [H/K-HELP3, fused polypeptide: KE 1, HE 4 and KE 5 from the N-terminus with five-glycine linkers]”, the “best peptide (%)” value in experiment [1], in experiment [2] and in experiment [3] was 50.00% each time. Also, the “induction efficiency (%)” value in experiment [1] is 66.67%; in experiment [2], 50.00%. Moreover, the “stimulation of CD4-positive T cells of different derivation to induce IFN-γ-producing Th1 cells, comparison in words” value in experiment [1] (compared with Example 1, 6 donors) was “more numerous CD4-positive T cells of different derivation are stimulated, as compared to Example 1”. Further, the best peptide result in experiment [1] (donor 1, CD4) is reported as “H/K-HELP3”; in experiment [1] (donor 4, CD4) it was “H/K-HELP3”; in experiment [1] (donor 5, CD4), “H/K-HELP3”; in experiment [2] (donor 3, CD8), “H/K-HELP3”; in experiment [2] (donor 4, CD8), “H/K-HELP3”; in experiment [2] (donor 5, CD8) it was “H/K-HELP3”. Moreover, the “induction of antigen-specific T cells” value in experiment [1] (donor 1 PBMC) is on record as “+”; in experiment [1] (donor 2 PBMC) it was “−”; in experiment [1] (donor 3 PBMC), “+”; in experiment [1] (donor 4 PBMC) it was “+”; in experiment [1] (donor 5 PBMC), “+”; in experiment [1] (donor 6 PBMC), “−”. In addition, the “induction of antigen-specific T cells” value is listed as “−” in experiment [2] (donor 1 PBMC); “−” in experiment [2] (donor 2 PBMC); “+” in experiment [2] (donor 3 PBMC); “+” in experiment [2] (donor 4 PBMC); “+” in experiment [2] (donor 5 PBMC); “−” in experiment [2] (donor 6 PBMC).
